Experiments:
TLR7 = molecular target: T1, TLR7 (Homo sapiens, UniProt Q9NYK1); assay: TLR7 cell based assay (HEK-BLUE-hTLR7, SEAP reporter linked to NF-κB activation); settings: HEK-BLUE-hTLR7 cells, 24 hours treatment, SEAP/QUANTI-Blue readout
T1 construct: host or cells: HEK293 (HEK-BLUE-hTLR7)
T1 sequence (Q9NYK1 27-1049): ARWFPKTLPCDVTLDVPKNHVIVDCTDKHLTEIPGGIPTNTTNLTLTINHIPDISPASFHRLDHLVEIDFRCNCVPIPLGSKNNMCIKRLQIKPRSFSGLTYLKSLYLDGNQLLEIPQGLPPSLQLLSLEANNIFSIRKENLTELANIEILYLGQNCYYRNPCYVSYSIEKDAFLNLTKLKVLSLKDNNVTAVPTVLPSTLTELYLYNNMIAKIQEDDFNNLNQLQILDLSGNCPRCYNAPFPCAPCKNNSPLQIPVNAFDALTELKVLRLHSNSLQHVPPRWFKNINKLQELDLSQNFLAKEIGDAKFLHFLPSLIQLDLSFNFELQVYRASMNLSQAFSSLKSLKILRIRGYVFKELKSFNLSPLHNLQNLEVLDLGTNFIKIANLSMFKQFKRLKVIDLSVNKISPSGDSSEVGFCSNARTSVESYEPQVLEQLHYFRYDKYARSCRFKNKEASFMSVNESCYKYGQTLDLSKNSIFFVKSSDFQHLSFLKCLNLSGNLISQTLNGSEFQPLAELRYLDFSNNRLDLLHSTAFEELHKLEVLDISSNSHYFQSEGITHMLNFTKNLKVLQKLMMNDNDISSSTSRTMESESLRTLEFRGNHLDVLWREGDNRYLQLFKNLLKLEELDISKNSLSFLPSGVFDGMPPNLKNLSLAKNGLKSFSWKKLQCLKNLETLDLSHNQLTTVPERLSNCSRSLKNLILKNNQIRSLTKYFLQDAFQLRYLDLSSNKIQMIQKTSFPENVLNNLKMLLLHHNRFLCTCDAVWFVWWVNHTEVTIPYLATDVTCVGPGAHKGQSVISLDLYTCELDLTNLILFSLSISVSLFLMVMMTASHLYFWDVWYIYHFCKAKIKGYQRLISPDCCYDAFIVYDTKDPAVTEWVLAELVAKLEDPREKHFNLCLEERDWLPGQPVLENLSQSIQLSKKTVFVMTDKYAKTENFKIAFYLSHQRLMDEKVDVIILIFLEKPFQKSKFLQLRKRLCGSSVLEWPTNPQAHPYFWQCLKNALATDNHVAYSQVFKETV
Protocol: (§1) In this assay, the bioactivity of compound of formula (I) was measured using a cell based assay. The assay was performed in human embryonic kidney cells (HEK293) expressing TLR7 or other TLR family members such as TLR4, and TLR9 (for selectivity screens). The activity of specific TLR agonists was assessed using the secretory embryonic alkaline phosphatase (SEAP) reporter gene that is linked to NF-κB activation in response to TLR stimulation. The SEAP activity was measured using the Quanti-Blue substrate (InvivoGen) after TLR agonist treatment.
(§2) The detailed experimental method is as follow:
HEK-BLUE-hTLR7 cell line was purchased from InvivoGen. The cells were cultured in Dulbecco's Modified Eagle's Media containing 4.5 g/L […] (Sigma-Aldrich) and 10% FBS. The cells were cultured at 37° C., 95% humidity and 5% CO2.
[…] A known TLR8 agonist was added as positive control and 1 μl of DMSO was added as negative control.
(§3) The cells were prepared as follows. The cells were removed from the incubator and growth medium was discarded. The cells were gently rinsed with pre-warmed 10 ml PBS for a T-150 flask. 12 ml pre-warmed growth medium was added, and the cells were detached by tapping the flask. Cell clumps were dissociated by gently pipetting up and down. The cells were counted. Single cell suspension was prepared at 200,000 cells per ml in growth medium and 200 μl of the cell suspension (40,000 cells per well) were immediately added to each well of the plate. The final DMSO concentration of each well was 0.5%.
The cells were cultured and treated with the compounds at 37° C., 5% CO2 for 24 hours.
(§4) 20 μL of the supernatant of each well were added to 180 μL of QUANTI-Blue, and the plates were incubated at 37° C. for 1.5 hour. Optical density was measured using a spectrophotometer at 650 nm (OD data). Activivation was calculated by using the equation below: Activivation %=(Compound OD mean value−DMSO OD mean value)/(positive control OD mean value−DMSO OD mean value)×100
(§5) The data were analyzed using the GraphPad to get EC50 values and fitting dose response curves of the compounds.

TLR8 = molecular target: T2, TLR8 (Homo sapiens, UniProt Q9NR97); assay: TLR8 cell based assay (HEK-BLUE-hTLR8, SEAP reporter linked to NF-κB activation); settings: HEK-BLUE-hTLR8 cells
T2 construct: host or cells: HEK293 (HEK-BLUE-hTLR8)
T2 sequence (Q9NR97 27-1041): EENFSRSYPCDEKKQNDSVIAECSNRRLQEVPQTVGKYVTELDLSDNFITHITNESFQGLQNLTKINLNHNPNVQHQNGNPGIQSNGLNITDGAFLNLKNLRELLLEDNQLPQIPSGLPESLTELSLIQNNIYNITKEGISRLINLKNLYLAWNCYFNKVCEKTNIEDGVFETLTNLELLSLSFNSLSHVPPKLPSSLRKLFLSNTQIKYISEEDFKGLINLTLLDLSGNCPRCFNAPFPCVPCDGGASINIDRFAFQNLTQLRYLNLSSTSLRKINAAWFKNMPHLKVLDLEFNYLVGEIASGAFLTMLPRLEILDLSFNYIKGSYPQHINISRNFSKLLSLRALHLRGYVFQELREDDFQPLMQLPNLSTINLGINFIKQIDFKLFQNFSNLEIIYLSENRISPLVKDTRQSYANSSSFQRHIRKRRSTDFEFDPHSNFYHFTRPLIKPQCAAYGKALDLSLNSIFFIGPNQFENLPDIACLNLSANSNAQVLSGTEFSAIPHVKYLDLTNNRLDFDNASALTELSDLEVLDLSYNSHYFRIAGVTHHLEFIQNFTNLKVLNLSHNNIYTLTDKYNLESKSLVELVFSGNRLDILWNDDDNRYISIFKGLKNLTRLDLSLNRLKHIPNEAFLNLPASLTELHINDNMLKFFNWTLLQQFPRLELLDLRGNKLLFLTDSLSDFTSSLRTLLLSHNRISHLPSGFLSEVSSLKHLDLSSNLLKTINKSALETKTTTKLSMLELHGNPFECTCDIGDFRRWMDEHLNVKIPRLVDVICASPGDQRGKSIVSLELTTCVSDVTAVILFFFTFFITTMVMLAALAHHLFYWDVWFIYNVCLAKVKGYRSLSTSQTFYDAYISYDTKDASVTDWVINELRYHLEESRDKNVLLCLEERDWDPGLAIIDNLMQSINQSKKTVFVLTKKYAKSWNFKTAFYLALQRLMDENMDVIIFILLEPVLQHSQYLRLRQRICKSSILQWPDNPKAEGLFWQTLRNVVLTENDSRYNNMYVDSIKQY
Protocol: as §1, with “Iw as” for “(I) was”, “TLR8” for “TLR7”, “TLR4, TLR7” for “TLR4,”
as §2
HEK-BLUE-hTLR8 cell line was purchased from InvivoGen. The cells were cultured in Dulbecco's Modified Eagle's Media containing 4.5 g/L […] (Sigma-Aldrich) and 10% FBS. The cells were cultured at 37° C., 95% humidity and 5% CO2.
Test concentrations of the compounds ranged from 0.5 nM to 15 μM with 10 points. A known TLR8 agonist was added as positive control and 1 μl of DMSO was added as negative control.
as §3, with “follows:” for “follows.”
The cells were cultured and treated with the compounds at 37° C., 5% CO2 for 24 h.
as §4, §5

[1] = 24 h treatment, SEAP/QUANTI-Blue readout

Row | SMILES | EC50 (TLR7) | EC50 (TLR8; [1]) | EC50 (TLR8; bound stated)
1 | CCCN(CCC)C(=O)C1=Cc2ccc(-c3ccc4c(=O)n(CCO)c(C)cc4c3)cc2N=C(N)C1 [Compound 1-2-8] | > 50 µM | < 0.1 µM | 
2 | CCCN(CCC)C(=O)C1=Cc2ccc(-c3ccc4c(=O)n(CC(C)(C)O)c(C)cc4c3)cc2N=C(N)C1 [Compound 1-2-9] | > 50 µM | < 0.1 µM | 
3 | CCCN(CCC)C(=O)C1=Cc2ccc(-c3ccc4c(=O)n(Cc5ccccc5)ncc4c3)cc2N=C(N)C1 [Compound 1-8-19] |  | 0.1 to 1 µM | 
4 | CCCN(CCC)C(=O)C1=Cc2ccc(-c3ccc4c(=O)n(Cc5ccccn5)ncc4c3)cc2N=C(N)C1 [Compound 1-8-20] |  | < 0.1 µM | 
5 | CCCN(CCC)C(=O)C1=Cc2ccc(-c3ccc4c(=O)n(Cc5nc(OC)cc(OC)n5)ncc4c3)cc2N=C(N)C1 [Compound 1-8-21] |  | < 0.1 µM | 
6 | CCCN(CCC)C(=O)C1=Cc2ccc(-c3ccc4c(=O)n(CC(N)=O)c(=O)n(C)c4c3)cc2N=C(N)C1 [Compound 1-9-3] |  | 0.1 to 1 µM | 
7 | CCCN(CCC)C(=O)C1=Cc2ccc(-c3ccc4c(=O)n(CC(C)(C)O)c(=O)n(C)c4c3)cc2N=C(N)C1 [Compound 1-9-5] |  | 0.1 to 1 µM | 
8 | CCCN(CCC)C(=O)C1=Cc2ccc(-c3ccc4c(=O)n(CCNS(C)(=O)=O)c(=O)n(C)c4c3)cc2N=C(N)C1 [Compound 1-9-6] |  | < 0.1 µM | 
9 | CCCN(CCC)C(=O)C1=Cc2c(F)cc(-c3ccc4c(=O)n(CCS(C)(=O)=O)ncc4c3)cc2N=C(N)C1 [Compound 1-10-2] |  | < 0.1 µM | 
10 | CCCN(CCC)C(=O)C1=Cc2c(F)cc(-c3ccc4c(=O)n(CC(=O)NC)ccc4c3)cc2N=C(N)C1 [Compound 1-10-3] |  | < 0.1 µM | 
11 | CCCN(CCC)C(=O)C1=Cc2c(F)cc(-c3ccc4c(=O)n(CCS(C)(=O)=O)ccc4c3)cc2N=C(N)C1 [Compound 1-10-4] |  | < 0.1 µM | 
12 | CCCN(CCC)C(=O)C1=Cc2c(F)cc(-c3ccc4c(=O)n(CC(=O)NC)c(=O)n(C)c4c3)cc2N=C(N)C1 [Compound 1-10-5] |  | < 0.1 µM | 
13 | CCCN(CCC)C(=O)C1=Cc2c(F)cc(-c3ccc4c(=O)n(CC(=O)NC)ncc4c3)cc2N=C(N)C1 [Compound 1-10-6] |  | < 0.1 µM | 
14 | CCCN(CCC)C(=O)C1=Cc2c(F)cc(-c3ccc4c(=O)n(CC(=O)NCC)ccc4c3)cc2N=C(N)C1 [Compound 1-10-7] |  | < 0.1 µM | 
15 | CCCN(CCC)C(=O)C1=Cc2c(F)cc(-c3ccc4c(=O)n(CC(=O)NC)cnc4c3)cc2N=C(N)C1 [Compound 1-10-8] |  | < 0.1 µM | 
16 | CCCN(CCC)C(=O)C1=Cc2c(F)cc(-c3ccc4c(=O)n(CCS(C)(=O)=O)c(=O)n(C)c4c3)cc2N=C(N)C1 [Compound 1-10-10] |  | 0.1 to 1 µM | 
17 | CCCN(CCO)C(=O)C1=Cc2ccc(-c3ccc4c(=O)n(CC(N)=O)ccc4c3)cc2N=C(N)C1 [Compound 1-12-1] |  | 0.1 to 1 µM | 
18 | CCCN(CCC)C(=O)C1=Cc2ccc(-c3ccc4c(=S)n(Cc5ncccn5)ncc4c3)cc2N=C(N)C1 [Compound 1-14-1] |  | < 0.1 µM | < 0.01 µM
19 | CCCN(CCC)C(=O)C1=Cc2ccc(-c3ccc4c(=S)n(CCS(C)(=O)=O)ncc4c3)cc2N=C(N)C1 [Compound 1-14-2] |  | < 0.1 µM | < 0.01 µM
20 | CCCN(CCC)C(=O)C1=Cc2ccc(-c3ccc4c(=S)n(Cc5cnccn5)ccc4c3)cc2N=C(N)C1 [Compound 1-14-5] |  | < 0.1 µM | 
21 | CCCN(CCC)C(=O)C1=Cc2ccc(-c3ccc4c(=S)n(Cc5cnccn5)ncc4c3)cc2N=C(N)C1 [Compound 1-14-6] |  | < 0.1 µM | 
22 | CCCN(CCC)C(=O)C1=Cc2c(cc(-c3ccc4c(=O)n(CCS(C)(=O)=O)ncc4c3)cc2OC)N=C(N)C1 [Compound 2-2-1] |  | 0.1 to 1 µM | 
23 | CCCN(CCC)C(=O)C1=Cc2c(Cl)cc(-c3ccc4c(=O)n(CCS(C)(=O)=O)ncc4c3)cc2N=C(N)C1 [Compound 2-2-3] |  | 0.1 to 1 µM | 
24 | [2H]c1cc(-c2ccc3c(=O)n(CCS(C)(=O)=O)ncc3c2)cc2c1C=C(C(=O)N(CCC)CCC)CC(N)=N2 [Compound 2-2-4] |  | < 0.1 µM | < 0.01 µM
25 | CCCN(CCC)C(=O)C1=Cc2c(Cl)cc(-c3ccc4c(=O)n(Cc5ncccn5)ncc4c3)cc2N=C(N)C1 [Compound 2-3-1] |  | < 0.1 µM | 
26 | CCCN(CCC)C(=O)C1=Cc2c(C)cc(-c3ccc4c(=O)n(Cc5ncccn5)ncc4c3)cc2N=C(N)C1 [Compound 2-3-2] |  | < 0.1 µM | < 0.01 µM
27 | [2H]c1cc(-c2ccc3c(=O)n(Cc4ncccn4)ncc3c2)cc2c1C=C(C(=O)N(CCC)CCC)CC(N)=N2 [Compound 2-3-3] |  | < 0.1 µM | < 0.01 µM

— patent publication US10669252B2, “Benzazepine derivative, preparation method, pharmaceutical composition and use thereof” (SHANGHAI DE NOVO PHARMATECH CO., LTD., priority 2016, dated 2020)
